Test results as given in US4372970A, “Benzofuran acetic acid esters and their arthropocidal compositions” (Shell Internationale Research Maatschappij B.V., priority 1979, dated 1983).

How the values were obtained:
[1] = tested on: lettuce, cucumber, dwarf French beans, tomato or broad bean; experiment: Phytotoxicity on foliage; assay type: in vivo; details: 100 p.p.m. on foliage
From the text: Phytotoxicity is an important feature when the insecticide is applied to foliage.

insects = details: about times that of natural pyrethrum; cited from earlier work

Row | Compound | phytotoxicity [1] | activity relative to natural pyrethrum (insects)
1 | CC(C)C(C(=O)OC(C#N)c1cccc(Oc2ccccc2)c1)c1ccc(Cl)cc1 (stereo not drawn) [fenvalerate, α-cyano-3-phenoxy-benzyl 2-(4-chlorophenyl)-3-methylbutyrate] | phytotoxicity was observed | –
2 | CC(C)=CC1C(C(=O)OCc2coc(Cc3ccccc3)c2)C1(C)C (centres unmarked) [Resmethrin, 5-benzyl-3-furylmethylchrysanthemumate] | – | about 20 times
